Measured values taken from patent US12180226B2, “Spirotricycle RIPK1 inhibitors and methods of uses thereof” (Merck Sharp & Dohme LLC, priority 2021, dated 2024).
Counter-ions that a name gives are not always drawn.

Target: RIPK1 (recombinant GST-RIPK1 kinase domain, residues 1-327) (Homo sapiens (Human), UniProt Q13546)
Experiment: RIPK1-ADP-Glo Enzymatic Assay
Format: biochemical
Conditions: ADP-Glo; 25 nM GST-RIPK1, 300 μM ATP; assay lower limit ~25 nM; read-out: RIPK1 V0 Ec50
Procedure, shortened: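 Luminescent ADP-Glo readout of ATP-to-ADP conversion. Conditions: 25 nM enzyme, 300 μM ATP, 3 μM dephospho-MBP, pH 7.3 HEPES buffer with 20 mM MgCl2; 30 min compound pre-incubation, 150 min reaction. EC50 via four-parameter sigmoidal regression; assay floor ~25 nM.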

Sequence of RIPK1 (recombinant GST-RIPK1 kinase domain, residues 1-327) (Q13546 1-327): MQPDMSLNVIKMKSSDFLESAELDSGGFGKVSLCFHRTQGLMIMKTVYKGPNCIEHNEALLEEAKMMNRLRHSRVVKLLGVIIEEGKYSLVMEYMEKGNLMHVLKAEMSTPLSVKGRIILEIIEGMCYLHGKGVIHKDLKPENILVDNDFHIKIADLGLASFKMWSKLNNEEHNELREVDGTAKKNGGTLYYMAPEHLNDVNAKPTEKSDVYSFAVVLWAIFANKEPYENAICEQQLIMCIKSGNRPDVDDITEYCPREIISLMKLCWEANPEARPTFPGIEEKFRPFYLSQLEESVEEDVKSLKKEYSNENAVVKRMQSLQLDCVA

Compound | EC50
O=C1N2[C@@H](CC[C@H]2c2ccccc2F)OC12CN(S(=O)(=O)c1ccccc1)C2 [Example 8.5, (5′S,7a′R)-5′-(2-fluorophenyl)-1-(phenylsulfonyl)tetra-hydro-3′H-spiro[azetidine-3,2′-pyrrolo[2,1-b]oxazol]-3′-one] | 429 nM
O=C(c1cccc(C23CC(C2)C3)n1)N1CCC2(CC1)O[C@@H]1CC[C@@H](c3cc(F)cc(F)c3)N1C2=O [Example 6.137, (5′S,7a′R)-1-[6-(bicyclo[1.1.1]pentan-1-yl)pyridine-2-car-bonyl]-5-(3,5-difluoro-phenyl)tetrahydro-3′H-spiro[piperidine-4,2′-pyrrolo[2,1-b] [1,3]oxazol]-3′-one] | 78.7 nM
O=C(c1ccccc1)N1CCC2(CC1)O[C@@H]1CC[C@@H](c3cccc(F)c3F)N1C2=O [Example 17.10, (5′S,7a′R)-1-benzoyl-5′-(2,3-difluorophenyl)tetrahydro-3′H-spiro[piperidine-4,2′-pyrrolo[2,1-b]oxazol]-3′-one] | < 25 nM
O=C(c1ccccc1)N1CCC2(CC1)O[C@@H]1CC[C@@H](c3ccc(F)cc3F)N1C2=O [Example 17.14, (5′S,7a′R)-1-(benzenecarbonyl)-5′-(2,4-difluorophenyl)tetrahydro-3′H-spiro[piperidine-4,2′-pyrrolo[2,1-b][1,3]oxazol]-3′-one] | < 25 nM
Cc1cccc(C(=O)N2CCC3(CC2)O[C@@H]2CC[C@@H](c4cccc(F)c4)N2C3=O)c1F [Example 6.119, (5′S,7a′R)-1-(2-fluoro-3-methylbenzene-1-carbonyl)-5′-(3-fluoro-phenyl)tetrahydro-3′H-spiro[piperidine-4,2′-pyrrolo[2,1-b][1,3]oxazol]-3′-one] | < 25 nM
CN(C)c1cccc(C(=O)N2CCC3(CC2)O[C@@H]2CC[C@@H](c4cccc(F)c4)N2C3=O)c1 [Example 6.124, (5′S,7a′R)-1-[3-(dimethylamino)-benzene-1-carbonyl]-5′-(3-fluorophenyl) tetrahydro-3′H-spiro [piperidine-4,2′-pyrrolo[2,1-b][1,3]-oxazol]-3′-one] | < 25 nM
Cc1ccccc1S(=O)(=O)N1CCC2(CC1)O[C@@H]1CC[C@@H](c3cc(F)cc(F)c3)N1C2=O [Example 8.2, (5′S,7a′R)-5′-(3,5-difluorophenyl)-1-[(2-methylphenyl)sulfonyl] tetrahydro-3′H-spiro[piperidine-4,2′-pyrrolo[2,1-b][1,3]oxazol]-3′-one] | 685 nM
N#Cc1cc(N2CCC3(O[C@@H]4CC[C@@H](c5ccccc5)N4C3=O)C(F)C2)ncn1 (single isomer, unassigned) [Example 4.95, 6-((3[S or R],4[R or S], 5′S,7a′R)-3-fluoro-3′-oxo-5′-phenyltetrahydro-3′H-spiro[piperidine-4,2′-pyrrolo[2,1-b]oxazol]-1-yl)pyrimidine-4-carbonitrile] | 58.3 nM
CC1CN(C(=O)c2ccccc2)CCC12O[C@@H]1CC[C@@H](c3cc(F)cc(F)c3)N1C2=O (single isomer, unassigned) [Example 2.6, (3[S or R],4[S or R], 5′S,7a′R)-1-benzoyl-5′-(3,5-difluorophenyl)-3-methyltetrahydro-3′H-spiro[piperidine-4,2′-pyrrolo[2,1-b]oxazol]-3′-one] | < 25 nM
O=C1N2[C@@H](CC[C@H]2c2ccc(F)cc2)OC12CCN(c1ccnc3c(F)cnn13)CC2 [Example 4.124, (5′S,7a′R)-5′-(4-fluorophenyl)-1-(3-fluoropyrazolo[1,5-a]pyrimidin-7-yl)tetrahydro-3′H-spiro[piperidine-4,2′-pyrrolo[2,1-b] [1,3]oxazol]-3′-one] | < 25 nM
O=C(c1ccccc1)N1CCC2(CC1)O[C@@H]1CC[C@@H](c3cnc4c(c3)CCC4)N1C2=O [Example 17.12, (5′S,7a′R)-1-benzoyl-5′-(6,7-dihydro-5H-cyclopenta[b]pyridin-3-yl)tetrahydro-3′H-spiro[piperidine-4,2′-pyrrolo[2,1-b]oxazol]-3′-one] | 342 nM
O=C1N2[C@@H](CC[C@H]2c2ccccc2)OC12CCN(c1ncnc3ccnn13)CC2 [Example 4.93, (5′S,7a′R)-5′-phenyl-1-(pyrazolo[1,5-a] [1,3,5]triazin-4-yl)tetrahydro-3′H-spiro[piperidine-4,2′-pyrrolo[2,1-b]oxazol]-3′-one, TFA salt] | < 25 nM
CCn1nccc1C(=O)N1CCC2(CC1)O[C@@H]1CC[C@@H](c3cc(F)cc(F)c3)N1C2=O [Example 6.37, (5′S,7a′R)-5′-(3,5-difluorophenyl)-1-(1-ethyl-1H-pyrazole-5-carbonyl)tetrahydro-3′H-spiro[piperidine-4,2′-pyrrolo[2,1-b] [1,3]oxazol]-3′-one] | 230 nM
Cc1nc2sccn2c1C(=O)N1CCC2(CC1)O[C@@H]1CC[C@@H](c3cc(F)cc(F)c3)N1C2=O [Example 6.43, (5′S,7a′R)-5′-(3,5-difluorophenyl)-1-(6-methylimidazo[2,1-b][1,3]thiazole-5-carbonyl)tetrahydro-3′H-spiro[piperidine-4,2′-pyrrolo[2,1-b] [1,3]oxazol]-3′-one] | 151 nM
Cc1ncc([C@@H]2CC[C@H]3OC4(CCN(c5ccc(C#N)c(C)n5)CC4)C(=O)N32)cc1F [Example 4.46, 6-[(5′S,7a′R)-5′-(5-fluoro-6-methylpyridin-3-yl)-3′-oxotetrahydro-1H,3′H-spiro[piperidine-4,2′-pyrrolo[2,1-b] [1,3]oxazol]-1-yl]-2-methylpyridine-3-carbonitrile] | 46.9 nM
O=C(c1ccccc1)N1CCC2(CC1)O[C@@H]1CC[C@@H](c3cnsc3)N1C2=O [Example 17.7, (5′S,7a′R)-1-benzoyl-5′-(isothiazol-4-yl)tetrahydro-3′H-spiro[piperidine-4,2′-pyrrolo[2,1-b]oxazol]-3′-one] | 558 nM
COC(=O)c1cnc(N2CCC3(CC2)O[C@@H]2CC[C@@H](c4ccccc4)N2C3=O)cc1Cl [Example 4.211, methyl 4-chloro-6-[(5′S,7a′R)-3′-oxo-5′-phenyltetrahydro-1H,3′H-spiro[piperidine-4,2′-pyrrolo[2,1-b] [1,3]oxazol]-1-yl]pyridine-3-carboxylate] | < 25 nM
O=C1N2[C@@H](CC[C@H]2c2ccccc2)OC12CCN(c1cc(-n3ccnc3)ncn1)CC2 [Example 4.171, (5′S,7a′R)-1-[6-(1H-imidazol-1-yl)pyrimidin-4-yl]-5′-phenyltetrahydro-3′H-spiro[piperidine-4,2′-pyrrolo[2,1-b] [1,3]oxazol]-3′-one] | < 25 nM
O=C1N2C(CCC2c2cccc(F)c2F)OC12CCN(c1ccnc3ccnn13)CC2 (stereo not drawn) [Example 20.7, 5′-(2,3-difluorophenyl)-1-(pyrazolo[1,5-a]pyrimidin-7-yl)tetrahydro-3′H-spiro[piperidine-4,2′-pyrrolo[2,1-b][1,3]oxazol]-3′-one] | < 25 nM
COc1cc(N2CCC3(CC2)O[C@@H]2CC[C@@H](c4ccccc4)N2C3=O)ncc1C#N [Example 4.220, 4-methoxy-6-[(5′S,7a′R)-3′-oxo-5′-phenyltetrahydro-1H,3′H-spiro[piperidine-4,2′-pyrrolo[2,1-b] [1,3]oxazol]-1-yl]pyridine-3-carbonitrile] | < 25 nM
Cc1cc(N2CCC3(CC2)O[C@@H]2CC[C@@H](c4ccccc4)N2C3=O)cc(C#N)n1 [Example 4.16, 6-methyl-4-[(5′S,7a′R)-3′-oxo-5′-phenyltetrahydro-1H,3′H-spiro[piperidine-4,2′-pyrrolo[2,1-b] [1,3]oxazol]-1-yl]pyridine-2-carbonitrile] | < 25 nM
O=C(c1cc(F)ccc1F)N1CC2(C1)O[C@@H]1CC[C@@H](c3ccccc3F)N1C2=O [Example 1.18, (5′S,7a′R)-1-(2,5-difluorobenzoyl)-5′-(2-fluorophenyl)tetrahydro-3′H-spiro[azetidine-3,2′-pyrrolo[2,1-b]oxazol]-3′-one] | 39 nM
O=C(c1cc(F)ccc1F)N1CCC2(CC1)SC1CCC(c3ccccc3)N1C2=O (stereo not drawn) [Example 1.24, 1-(2,5-difluorobenzene-1-carbonyl)-5′-phenyltetrahydro-3′H-spiro[piperidine-4,2′-pyrrolo[2,1-b] [1,3]thiazol]-3′-one] | 23 nM
Cc1ncc([C@@H]2CC[C@H]3OC4(CCN(c5ccnc6c(F)cnn56)CC4F)C(=O)N32)cc1F (stereo partly drawn) [Example 4.130, (5′S,7a′R)-3-fluoro-5′-(5-fluoro-6-methylpyridin-3-yl)-1-(3-fluoropyrazolo[1,5-a]pyrimidin-7-yl)tetrahydro-3′H-spiro[piperidine-4,2′-pyrrolo[2,1-b] [1,3]oxazol]-3′-one] | < 25 nM
N#Cc1cnc(N2CCC3(CC2)O[C@@H]2CC[C@@H](c4ccccc4)N2C3=O)c(F)c1 [Example 4.72, 5-fluoro-6-[(5′S,7a′R)-3′-oxo-5′-phenyltetrahydro-1H,3′H-spiro[piperidine-4,2′-pyrrolo[2,1-b] [1,3]oxazol]-1-yl]pyridine-3-carbonitrile] | 29.8 nM
O=C(c1nnc(-c2ccccn2)s1)N1CCC2(CC1)O[C@@H]1CC[C@@H](c3cc(F)cc(F)c3)N1C2=O [Example 6.45, (5′S,7a′R)-5′-(3,5-difluorophenyl)-1-[5-(pyridin-2-yl)-1,3,4-thiadiazole-2-carbon-yl]tetrahydro-3′H-spiro[piperidine-4,2′-pyrrolo[2,1-b][1,3]oxazol]-3′-one] | 451 nM
O=C(c1cnc(Cl)cn1)N1CCC2(CC1)O[C@@H]1CC[C@@H](c3cc(F)cc(F)c3)N1C2=O [Example 6.86, (5′S,7a′R)-1-(5-chloro-pyrazine-2-carbonyl)-5′-(3,5-difluorophen-yl)tetrahydro-3′H-spiro[piperidine-4,2′-pyrrolo[2,1-b][1,3]-oxazol]-3′-one] | 86 nM
